Results from ChEMBL document CHEMBL6071148, “Synthesis and biological evaluation of novel 3,6- amide and thioamide substituted- 2,3,4,9-tetrahydro-1H-carbazoles for anti-cancer activity” (Eur J Med Chem, 2024).
The source made the active and inactive calls. The rule behind the calls is not given here.

What was measured:
[1] = system: A549; assay: Cytotoxicity against human A549 cells assessed as inhibition of cell proliferation incubated for 72 hrs by MTT assay; type: functional, cell-based; settings: A549, 72 h
[2] = system: MCF7; assay: Cytotoxicity against human MCF7 cells assessed as inhibition of cell proliferation incubated for 72 hrs by MTT assay; type: functional, cell-based; settings: MCF7, 72 h
[3] = Cytotoxicity against human MRC5 cells assessed as inhibition of cell proliferation incubated for 72 hrs by MTT assay; type: toxicity, cell-based
[4] = system: HCT-116; assay: Cytotoxicity against human HCT-116 cells assessed as inhibition of cell proliferation incubated for 72 hrs by MTT assay; type: functional, cell-based; settings: HCT-116, 72 h
[5] = system: MCF7; assay: Inhibition of colony formation in human MCF7 cells assessed as reduction in clonogenic capacity incubated for 24 hrs by crystal violet staining based analysis; type: functional, cell-based
[6] = system: HCT-116; assay: Induction of cell cycle arrest in human HCT-116 cells assessed as accumulation of cells at G1 phase at IC50 incubated for 24 hrs by PI staining based flow cytometric analysis relative to control; type: functional
[7] = Toxicity in chicken embryo chorioallantoic membrane assessed as survival rate at 1.5 uM measured at day 6 by Kaplan Mayer survival analysis relative to control; type: tissue-based, Gallus gallus
[8] = system: Mitochondrial membrane; assay: Induction of mitochondrial membrane depolarization in human HCT-116 cells assessed as increase in mitochondrial fission by measuring appearance of shortened mitochondria by confocal microscopic analysis; type: cell membranes
[9] = system: HCT-116; assay: Induction of cell cycle arrest in human HCT-116 cells assessed as accumulation of cells at S phase at IC50 incubated for 48 hrs by PI staining based flow cytometric analysis; type: functional
[10] = system: A549; assay: Induction of cell cycle arrest in human A549 cells assessed as accumulation of cells at S phase at IC50 incubated for 24 hrs by PI staining based flow cytometric analysis (reference value: 39.41 +/- 2.54%); type: functional
[11] = system: Mitochondrial membrane; assay: Disruption of mitochondrial membrane integrity in human HCT-116 cells assessed as change in mitochondrial shape by TEM analysis; type: cell membranes
[12] = system: Mitochondrial membrane; assay: Disruption of mitochondrial membrane potential in human HCT-116 cells assessed as translocation of cytochrome c to cytoplasm at IC50 incubated for 48 hrs by confocal microscopic analysis; type: cell membranes
[13] = system: Mitochondrial membrane; assay: Disruption of mitochondrial membrane integrity in human HCT-116 cells assessed as organization of mtDNA nucleoids within cells by TEM analysis; type: cell membranes
[14] = Toxicity in chicken embryo chorioallantoic membrane at nanomolar concentration measured at day 6 by Kaplan Mayer survival analysis; type: tissue-based, Gallus gallus; settings: in vivo
[15] = system: Mitochondrial membrane; assay: Disruption of mitochondrial membrane integrity in human HCT-116 cells assessed as change in mitochondrial size by TEM analysis; type: cell membranes
[16] = system: A549; assay: Induction of cell cycle arrest in human A549 cells assessed as accumulation of cells at G2 phase at IC50 incubated for 48 hrs by PI staining based flow cytometric analysis (reference value: 38.15 +/- 1.80%); type: functional
[17] = system: A549; assay: Inhibition of colony formation in human A549 cells assessed as reduction in clonogenic capacity incubated for 24 hrs by crystal violet staining based analysis; type: functional, cell-based
[18] = system: Mitochondrial membrane; assay: Induction of mitochondrial membrane depolarization in human HCT-116 cells assessed as increase in mitochondrial fission by measuring appearance of spherical mitochondria by confocal microscopic analysis; type: cell membranes
[19] = system: Mitochondrial membrane; assay: Disruption of mitochondrial membrane integrity in human HCT-116 cells assessed as mitochondrial swelling by TEM analysis; type: cell membranes
[20] = system: Mitochondrial membrane; assay: Disruption of mitochondrial membrane integrity in human HCT-116 cells assessed as absence of well-developed cristae by TEM analysis; type: cell membranes
[21] = system: HCT-116; assay: Induction of apoptosis in human HCT-116 cells assessed as increase in apoptotic cells incubated for 48 hrs by Annexin-V and 7-AAD staining based flow cytometric analysis (reference value: 6.82 +/- 1.05%); type: functional
[22] = system: HCT-116; assay: Induction of cell cycle arrest in human HCT-116 cells assessed as accumulation of cells at G1 phase at IC50 incubated for 48 hrs by PI staining based flow cytometric analysis relative to control; type: functional
[23] = system: Mitochondrial membrane; assay: Disruption of mitochondrial membrane integrity in human HCT-116 cells assessed as change in mitochondrial internal organization by TEM analysis; type: cell membranes
[24] = system: Mitochondrial membrane; assay: Induction of mitochondrial membrane depolarization in human A549 cells assessed as decrease in ratio of J-aggregates to J-monomer incubated for 24 hrs by JC-1 staining based flow cytometric analysis (reference value: 17.72 +/- 3.94%); type: cell membranes
[25] = system: Mitochondrial membrane; assay: Disruption of mitochondrial membrane integrity in human HCT-116 cells assessed as presence of bloated mitochondria by TEM analysis; type: cell membranes
[26] = system: HCT-116; assay: Induction of apoptosis in human HCT-116 cells assessed as increase in apoptotic cells incubated for 24 hrs by Annexin-V and 7-AAD staining based flow cytometric analysis (reference value: 8.10 +/- 2.16%); type: functional
[27] = system: A549; assay: Induction of apoptosis in human A549 cells assessed as apoptotic rate at IC50 incubated for 48 hrs by Annexin-V and 7-AAD staining based flow cytometric analysis (reference value: 6.56 +/- 1.17%); type: functional
[28] = system: HCT-116; assay: Induction of DNA damage in human HCT-116 cells assessed as gammaH2AX positive cells at IC50 incubated for 48 hrs by PI staining based flow cytometric analysis (reference value: 6.24 +/- 1.94%); type: functional
[29] = system: A549; assay: Induction of apoptosis in human A549 cells assessed as apoptotic rate at IC50 incubated for 24 hrs by Annexin-V and 7-AAD staining based flow cytometric analysis (reference value: 4.56 +/- 0.81%); type: functional
[30] = system: Mitochondrial membrane; assay: Disruption of mitochondrial membrane integrity in human HCT-116 cells assessed as presence of large mitochondria by TEM analysis; type: cell membranes
[31] = system: HCT-116; assay: Inhibition of colony formation in human HCT-116 cells assessed as reduction in clonogenic capacity incubated for 24 hrs by crystal violet staining based analysis; type: functional, cell-based
[32] = system: HCT-116; assay: Inhibition of cell adhesion in human HCT-116 cells assessed as reduction in cell aggregates formation at IC50 incubated for 48 hrs by inverted phase contrast microscopic analysis; type: functional, cell-based
[33] = Toxicity in chicken embryo chorioallantoic membrane assessed as survival rate at 4.5 uM measured at day 6 by Kaplan Mayer survival analysis relative to control; type: tissue-based, Gallus gallus
[34] = system: A549; assay: Induction of DNA damage in human A549 cells assessed as increase in gammaH2AX positive cells at IC50 incubated for 48 hrs by PI staining based flow cytometric analysis; type: functional, cell-based
[35] = system: Mitochondrial membrane; assay: Disruption of mitochondrial membrane integrity in human HCT-116 cells assessed as disruption of normal mitochondrial distribution by TEM analysis; type: cell membranes
[36] = system: A549; assay: Inhibition of cell adhesion in human A549 cells assessed as reduction in cell aggregates formation at IC50 incubated for 48 hrs by inverted phase contrast microscopic analysis; type: functional, cell-based
[37] = system: HCT-116; assay: Induction of cell cycle arrest in human HCT-116 cells assessed as accumulation of cells at G2 phase at IC50 incubated for 24 hrs by PI staining based flow cytometric analysis relative to control; type: functional
[38] = system: A549; assay: Induction of cell cycle arrest in human A549 cells assessed as accumulation of cells at G1 phase at IC50 incubated for 48 hrs by PI staining based flow cytometric analysis (reference value: 53.5 +/- 4.01%); type: functional
[39] = system: Mitochondrial membrane; assay: Induction of mitochondrial membrane depolarization in human HCT-116 cells assessed as increase in mitochondrial fission by measuring appearance of circular mitochondria by confocal microscopic analysis; type: cell membranes
[40] = system: A549; assay: Cytotoxicity against human A549 cells assessed as reduction in cell viability incubated for 48 hrs by MTT assay; type: functional, cell-based; settings: A549, 48 h
[41] = system: K562; assay: Cytotoxicity against human K562 cells assessed as reduction in cell viability incubated for 48 hrs by MTT assay; type: functional, cell-based; settings: K562, 48 h
[42] = Cytotoxicity against human KB-R cells assessed as reduction in cell viability incubated for 48 hrs by MTT assay; type: functional, cell-based
[43] = system: HCT-116; assay: Cytotoxicity against human HCT-116 cells assessed as reduction in cell viability incubated for 48 hrs by MTT assay; type: functional, cell-based; settings: HCT-116, 48 h
[44] = Cytotoxicity against human SGC cells assessed as reduction in cell viability incubated for 48 hrs by MTT assay; type: functional, cell-based
[45] = system: HCT-116; assay: Cytotoxicity against human HCT-116 cells assessed as reduction in cell viability by SRB assay; type: functional, cell-based
[46] = system: MCF7; assay: Cytotoxicity against human MCF7 cells assessed as reduction in cell viability by SRB assay; type: functional, cell-based
[47] = system: HL-60; assay: Cytotoxicity against human HL-60 cells; type: functional, cell-based
[48] = target: Acetylcholinesterase (Homo sapiens, UniProt P22303); assay: Inhibition of AChE (unknown origin) by Ellman's method
Acetylcholinesterase, sequence (P22303 whole entry): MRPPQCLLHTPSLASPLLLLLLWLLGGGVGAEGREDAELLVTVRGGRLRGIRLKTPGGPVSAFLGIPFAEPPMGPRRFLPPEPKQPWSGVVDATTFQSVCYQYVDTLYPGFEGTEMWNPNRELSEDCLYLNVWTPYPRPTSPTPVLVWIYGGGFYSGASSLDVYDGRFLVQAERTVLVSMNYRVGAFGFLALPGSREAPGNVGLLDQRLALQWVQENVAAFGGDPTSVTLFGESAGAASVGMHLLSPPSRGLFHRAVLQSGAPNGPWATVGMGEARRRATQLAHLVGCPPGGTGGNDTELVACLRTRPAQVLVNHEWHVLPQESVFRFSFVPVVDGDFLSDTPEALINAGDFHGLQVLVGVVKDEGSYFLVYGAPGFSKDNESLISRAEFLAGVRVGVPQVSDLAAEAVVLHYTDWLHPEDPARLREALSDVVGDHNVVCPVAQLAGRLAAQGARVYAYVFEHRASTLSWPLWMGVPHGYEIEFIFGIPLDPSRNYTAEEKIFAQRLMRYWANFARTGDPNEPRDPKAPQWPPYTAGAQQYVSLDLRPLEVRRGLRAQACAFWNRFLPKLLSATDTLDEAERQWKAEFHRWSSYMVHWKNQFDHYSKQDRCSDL

CC(=O)Nc1ccc2[nH]c3c(c2c1)CC(NC(=O)c1ccc(C)s1)CC3 (stereo not given)
IC50 [1]: > 50 µM
IC50 [2]: > 50 µM
IC50 at 72 h [3]: > 50 µM
IC50 [4]: > 50 µM

CC(=O)Nc1ccc2[nH]c3c(c2c1)CC(NC(=O)c1ccc(C)o1)CC3 (stereo not given)
IC50 [1]: > 50 µM
IC50 [2]: > 50 µM
IC50 at 72 h [3]: > 50 µM
IC50 [4]: > 50 µM

CC(=S)NC1CCc2[nH]c3ccc(OC(F)(F)F)cc3c2C1 (stereo not given)
IC50 [1]: 25.7 µM
inhibition [5]: Dose-Dependent Effect
IC50 [2]: 31 µM
Activity [6]: 16.95%
survival at 1.5 µM [7]: 70%
Activity [8]: Active
IC50 at 72 h [3]: > 50 µM
Activity [9]: 18.9%
Activity [10]: 15.45%
Activity [11]: Active
Activity [12]: Active
Activity [13]: Active
Activity [14]: Non-Toxic
Activity [15]: Active
Activity [16]: 46.75%
inhibition [17]: Dose-Dependent Effect
Activity [18]: Active
Activity [19]: Active
Activity [20]: Active
Activity [21]: 45.03%
Activity [22]: 31.15%
Activity [23]: Active
Activity [24]: 16.9
Activity [25]: Active
Activity [26]: 17.5%
Activity [27]: 27.97%
Activity [28]: 14.63%
Activity [29]: 16.64%
Activity [30]: Active
inhibition [31]: Dose-Dependent Effect
inhibition [32]: Active
survival at 4.5 µM [33]: 70%
Activity [34]: Active
Activity [35]: Active
inhibition [36]: Active
Activity [37]: 17.95%
Activity [38]: 53.35%
IC50 [4]: 23.6 µM
Activity [39]: Active

CCN(CC)C1CCc2c(n(C)c3ccccc23)C1=O (stereo not given)
IC50 [40]: 110 µM
IC50 [41]: 17.3 µM
IC50 [42]: 118 µM
IC50 [43]: 2.96 µM
IC50 [44]: 24.4 µM

O=C(CSC(=S)N1CCN(c2ccc(Cl)cc2)CC1)n1c2c(c3ccccc31)CCCC2
IC50 [45]: 8.23 µM
IC50 [46]: 7.24 µM

CC[C@]12CCCN3C(=O)C(=O)O[C@@]31c1c([nH]c3ccccc13)CC2
IC50 [47]: > 100 µM

O=C1[C@H](O)C[C@]23CCCN1[C@@H]2c1c([nH]c2ccccc12)CC3
IC50 [48]: 38.5 µM

CC(=O)Nc1ccc2[nH]c3c(c2c1)CC(NC(=O)c1ccc(Br)o1)CC3 (stereo not given)
IC50 [1]: > 50 µM
IC50 [2]: > 50 µM
IC50 at 72 h [3]: > 50 µM
IC50 [4]: > 50 µM
